Experiments:
[1] = tested on: O4+ OLs in subcortical white matter; test: OL proliferation and maturation in vivo in pups without insult; parameters: species or system rat; details: 30 mg/kg topiramate or 20 mg/kg NBQX; for number of proliferating (BrdU labeled, O4+) OLs in subcortical white matter: 4 injections every 12 hours at P7 and P8, no insult, vs vehicle; for maturation of white matter (O4, O1, MBP immunohistostaining), qualitative: 4 injections every 12 hours at P7 and P8, at P9 or P11
Protocol: Litters of male Long Evans rat pups (Charles River Laboratories, Wilmington, Mass.) were raised with dams in a temperature-controlled environment with 12 hour light-dark cycles. Pups underwent carotid ligation and hypoxia at post-natal-day (P)7. They were recovered on a thermal blanket at 33-34° C. (baseline temperature for P7 rats) and returned to their dam for 48-96 hours prior to sacrifice. Treated pups were given intra-peritoneal (i.p.) injections of 0.1 cc solutions of topiramate, NBQX or vehicle every 12 hours for 48 hours at P7 and P8 for treatment, control and normal development studies.
Oligodendrocyte maturation and myelin expression were evaluated in animals treated for 48 hours with topiramate as compared with normal development. The sub-cortical white matter was evaluated by immunocytochemistry with antibodies to O4, O1 and myelin basic protein (MBP), for changes in pre-myelinating OL populations and in the pattern of MBP expression in rats sacrificed at P9, acutely after treatment. To evaluate for any permanent effect on mature myelination, the quantity of MBP at P28 in animals treated for 48 hours at P7/8 with topiramate was compared with untreated littermates by Western blot.
Histological and immunocytochemical (ICC) analysis was carried out on serial 20-30 μm coronal sections, cut by either cryostat (for pre-mounted sections) or freezing microtome (floating sections) from the anterior extent of the lateral ventricles through the posterior extent of the dorsal hippocampus. Representative sections from all experimental animals were stained with hematoxylin and eosin (HE) for routine evaluation.
For ICC evaluation, adjacent mounted sections were incubated in 5-10% normal goat serum for one hour to block non-specific binding and concurrently permeabilized in 0.1% Triton X-100. Slides were incubated with MBP antibody (SMA-99, Sternberger Monoclonals, Baltimore, Md.) at a dilution of 1:800 in PBS with 1% normal goat serum plus 0.1% Triton overnight at 4° C., followed by Oregon Green (Molecular Probes, Eugene, Oreg.) anti-mouse IgG secondary antibody for one hour at room temperature. […]
Litters were divided and pups received 4 injections, one every 12 hours for 48 hours at P7 and P8, of either vehicle (n=6), 30 mg/kg topiramate (n=7) or 20 mg/kg NBQX (n=7). […] At the completion of 48 hours the animals were sacrificed and the number of BrdU labeled, O4+ OLs present in the subcortical white matter of coronal sections (n=20/group) were counted (FIG. 5B). […] Furthermore, qualitative analysis of white matter by immunohistostaining for OL stage-specific markers O4, O1 and MBP was carried out in serial sections of the same animals evaluated above.

[2] = tested on: A2B5+ OL precursor cells; test: Cell proliferation (BrdU incorporation) in OL precursor cultures; type: cell-based, rat; details: topiramate 30 μM, NBQX 100 μM; 24 hours, BrdU last 2 hours
Protocol: Primary oligodendrocyte precursor cells were isolated from mixed glial cultures of the forebrains of newborn Sprague-Dawley rats using a selective detachment procedure as described in detail elsewhere (McCarthy and de Vellis, 1980; Back et al., 1998), and further purified by differential adhesion (Back et al., 1998). Precursor cells were maintained in a chemically-defined medium (CDM) supplemented with recombinant human platelet derived growth factor-AA (PDGF, 10 ng/ml) and basic fibroblast growth factor (bFGF, 10 ng/ml). […]
Cell proliferation was measured by determining the incorporation of the thymidine analog 5-bromo-2′-deoxyuridine (BrdU, […]) into replicating DNA of cells during the last 2 hr of the experiment. […] After the cells were incubated in a solution containing 2% BSA and 0.2% Triton X-100 for 30 min, BrdU incorporation was detected employing a murine monoclonal anti-BrdU antibody (Chemicon) and FITC-conjugated goat anti-mouse IgG. Quantitative analysis was performed by determining the percent of BrdU^+ cells in the A2B5^+ population. […] All assays were performed in triplicate and at least 1000 cells counted for each data point.
The proliferative capability of the cells was measured by the incorporation of the thymidine analog BrdU into DNA. […] A quantitative analysis was obtained by counting the number of BrdU^+ cells in the A2B5^+ population and calculating a percent. […]

Structure (SMILES) | number of proliferating (BrdU labeled, O4+) OLs in subcortical white matter [1] | maturation of white matter (O4, O1, MBP immunohistostaining), qualitative [1] | rate of BrdU incorporation (% BrdU+/A2B5+) [2]
NS(=O)(=O)c1cccc2c1c([N+](=O)[O-])cc1nc(O)c(O)nc12 [NBQX, 2,3-Dioxo-6-nitro-1,2,3,4-tetrahydrobenzo[f]quinoxaline-7-sulphonamide] | No difference in the number of proliferating OLs was detected | No qualitative difference in maturation was seen | Neither topiramate or NBQX altered the rate of BrdU incorporation
CC1(C)O[C@@H]2[C@@H](CO[C@@]3(COS(N)(=O)=O)OC(C)(C)O[C@@H]23)O1 [topiramate] | No difference in the number of proliferating OLs was detected | No qualitative difference in maturation was seen | Neither topiramate or NBQX altered the rate of BrdU incorporation

Reference: patent publication US6921775B2, “Methods for modulating brain damage” (Children's Medical Center Corporation, priority 2001, dated 2005)
